# Data published in patent publication US8569313B2, “Meta-substituted phenyl sulfonyl amides of secondary amino acid amides, the production thereof, and use thereof as matriptase inhibitors” (The Medicines Company (Leipzig) GmbH, priority 2007, dated 2013).
# Target: matriptase (Homo sapiens (Human), UniProt Q9Y5Y6)
# Test: Determination of the matriptase inhibition (chromogenic substrate CH3SO2-D-Cha-Gly-Arg-pNA, Dixon Ki)
# Type: biochemical
# Conditions: 25° C., pH 8.0; means of at least two determinations
# Method: Determination of the Matriptase Inhibition
# To determine the inhibition effect, 200 μl Tris buffer (inhibitor contains 0.05 M, 0.154 M NaCl, 5% ethanol, pH 8.0), 25 μl substrate (CH3SO2-D-Cha-Gly-Arg-pNA; 2 and 1 mM) and 50 μl matriptase (0.5 μg/ml) were incubated at 25° C. After 3 min the reaction was halted through the addition of 25 μl acetic acid (50%) and the Absorption determined at 405 nm by means of a Microplate Reader (Multiscan Ascent from the company Thermo Electron Corporation). The Ki values were calculated according to Dixon (Biochem. J. 55, 170-171, 1953) through linear regression by means of a computer program. The Ki-values are the means of at least two determinations.
# Ki value for the inhibition of matriptase in nM (n.d.=not determined)
# Sequence of matriptase (Q9Y5Y6 whole entry): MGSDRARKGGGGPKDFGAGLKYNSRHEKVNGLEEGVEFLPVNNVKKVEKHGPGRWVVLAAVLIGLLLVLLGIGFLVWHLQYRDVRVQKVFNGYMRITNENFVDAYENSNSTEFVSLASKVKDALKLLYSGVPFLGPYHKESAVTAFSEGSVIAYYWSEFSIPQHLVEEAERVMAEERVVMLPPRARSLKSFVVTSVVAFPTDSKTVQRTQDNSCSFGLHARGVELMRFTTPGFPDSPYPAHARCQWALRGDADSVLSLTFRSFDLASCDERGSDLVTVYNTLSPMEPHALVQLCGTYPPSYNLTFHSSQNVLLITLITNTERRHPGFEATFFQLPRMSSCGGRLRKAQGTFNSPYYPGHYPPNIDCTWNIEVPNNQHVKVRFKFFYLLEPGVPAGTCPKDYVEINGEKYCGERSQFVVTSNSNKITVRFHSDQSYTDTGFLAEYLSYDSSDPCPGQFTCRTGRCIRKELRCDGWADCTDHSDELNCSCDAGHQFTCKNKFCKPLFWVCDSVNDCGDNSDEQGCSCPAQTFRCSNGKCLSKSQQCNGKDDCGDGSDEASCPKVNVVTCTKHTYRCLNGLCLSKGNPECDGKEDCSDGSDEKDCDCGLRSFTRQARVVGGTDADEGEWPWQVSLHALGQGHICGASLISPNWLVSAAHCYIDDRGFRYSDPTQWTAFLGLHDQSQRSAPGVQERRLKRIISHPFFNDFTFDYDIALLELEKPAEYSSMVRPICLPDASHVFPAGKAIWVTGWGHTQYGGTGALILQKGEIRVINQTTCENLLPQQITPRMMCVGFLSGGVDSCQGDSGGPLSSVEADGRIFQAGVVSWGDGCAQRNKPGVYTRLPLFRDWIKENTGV
row,Compound,Ki
1,"CNC(=O)CCCC1CCN(C(=O)[C@H](Cc2cccc(C(=N)N)c2)NS(=O)(=O)c2cccc(NC(=O)CCN)c2)CC1 [Inhibitor 17, N-(3-β-Ala)amidophenyl sulfonyl-Phe(3-Am)-piperidine buteryl-N-methylamide]",6.3 nM
2,N=C(N)c1cccc(CC(NS(=O)(=O)c2cccc(-c3ccccc3Cl)c2)C(=O)N2CCC(CCN)CC2)c1 (stereo not drawn) [Inhibitor 9],29 nM
3,NCCC(=O)Nc1cccc(S(=O)(=O)N[C@@H](Cc2cccc(CN)c2)C(=O)N2CCN(C(=O)OCc3ccccc3)CC2)c1 [Inhibitor 36],44.5 nM
4,N=C(N)c1cccc(CC(NS(=O)(=O)c2cccc(-c3ccccc3)c2)C(=O)N2CCC(CCN)CC2)c1 (stereo not drawn) [Inhibitor 2],100 nM
5,CNC(=O)CCCC1CCN(C(=O)C(Cc2cccc(C(=N)N)c2)NS(=O)(=O)c2cccc(-n3ncccc3=O)c2)CC1 (stereo not drawn) [Inhibitor 29],98 nM
6,N=C(N)c1cccc(C[C@H](NS(=O)(=O)c2cccc(NC(=O)CCN)c2)C(=O)N2CCCC(C(N)=O)C2)c1 (stereo partly drawn) [Inhibitor 24],30.5 nM
7,N=C(N)c1cccc(C[C@H](NS(=O)(=O)c2cccc(NC(=O)CCN)c2)C(=O)N2CCNCC2)c1 [Inhibitor 27],36 nM
8,CCc1ccc(-c2cccc(S(=O)(=O)N[C@@H](Cc3cccc(C(=N)N)c3)C(=O)N3CCC(CCCC(=O)NC)CC3)c2)cc1 [Inhibitor 19],24.5 nM
9,"COc1ccc(-c2cccc(S(=O)(=O)NC(Cc3cccc(C(=N)N)c3)C(=O)N3CCC(CCN)CC3)c2)cc1OC (stereo not drawn) [Inhibitor 1, 3-(3,4-dimethoxyphenyl)phenyl sulfonyl-d/l-Phe(3-Am)-4-(2-aminoethyl)piperidide]",5.4 nM
10,N=C(N)c1cccc(CC(NS(=O)(=O)c2cccc(-c3ccncc3)c2)C(=O)N2CCC(CCN)CC2)c1 (stereo not drawn) [Inhibitor 10],60 nM
11,CCc1ccc(-c2cccc(S(=O)(=O)N[C@@H](Cc3cccc(/C(N)=N\O)c3)C(=O)N3CCC(CCCC(=O)NC)CC3)c2)cc1 [Inhibitor 33],24000 nM
12,N=C(N)c1cccc(C[C@H](NS(=O)(=O)c2cccc(NC(=O)CCN)c2)C(=O)N2CCC(C(N)=O)CC2)c1 [Inhibitor 23],12.1 nM
13,COC(=O)CCCC1CCN(C(=O)[C@H](Cc2cccc(C(=N)N)c2)NS(=O)(=O)c2cccc(NC(=O)CCN)c2)CC1 [Inhibitor 20],6.1 nM
14,H-βAla-3-NH-phenyl sulfonyl-Phe(3-Am)-4-piperidyl-(CH2)3—CONH—(CH2)2-PEG10000-CH3 [Inhibitor 50],54 nM
15,N=C(N)c1cccc(C[C@H](NS(=O)(=O)c2cccc(NC(=O)CCN)c2)C(=O)N2CCC(C(=O)OCc3ccccc3)CC2)c1 [Inhibitor 48],0.7 nM
16,N=C(N)c1cccc(CC(NS(=O)(=O)c2cccc(-c3cccc(Cl)c3)c2)C(=O)N2CCC(CCN)CC2)c1 (stereo not drawn) [Inhibitor 8],91 nM
17,CNC(=O)CCCC1CCN(C(=O)[C@H](Cc2cccc(C(=N)N)c2)NS(=O)(=O)c2cccc(C3CCC(N)=NC3)c2)CC1 (stereo partly drawn) [Inhibitor 47],0.49 nM
18,N=C(N)c1cccc(CC(NS(=O)(=O)c2cccc(-c3ccc(N)nc3)c2)C(=O)N2CCC(CCN)CC2)c1 (stereo not drawn) [Inhibitor 14],4.2 nM
19,N=C(N)c1cccc(CC(NS(=O)(=O)c2cccc(-c3ccc(Cl)cc3)c2)C(=O)N2CCC(CCN)CC2)c1 (stereo not drawn) [Inhibitor 7],26 nM
20,Cc1nccc(-c2cccc(S(=O)(=O)N[C@@H](Cc3cccc(C(=N)N)c3)C(=O)N3CCC(CCN)CC3)c2)n1 [Inhibitor 12],28 nM
21,N=C(N)c1cccc(C[C@H](NS(=O)(=O)c2cccc(NC(=O)CCN)c2)C(=O)N2CCC(CCCC(=O)O)CC2)c1 [Inhibitor 22],255 nM

row,Compound,Ki
1,COc1ccc(-c2cccc(S(=O)(=O)NC(Cc3cccc(C(=N)N)c3)C(=O)N3CCC(CCN)CC3)c2)cc1 (stereo not drawn) [Inhibitor 3],6 nM
2,"NCCC(=O)Nc1cccc(S(=O)(=O)N[C@@H](Cc2cccc(CN)c2)C(=O)N2CCC(CCN)CC2)c1 [Inhibitor 34, H-βAla-3-NH-phenyl sulfonyl-Phe(3-Ame)-(2-aminoethyl)piperidide]",56 nM
3,N=C(N)c1cccc(CC(NS(=O)(=O)c2cccc(-c3cccnc3)c2)C(=O)N2CCC(CCN)CC2)c1 (stereo not drawn) [Inhibitor 11],47 nM
4,CNC(=O)CCCC1CCN(C(=O)[C@H](Cc2cccc(C(=N)N)c2)NS(=O)(=O)c2cccc(-c3ccc(C(C)C)cc3)c2)CC1 [Inhibitor 44],23.5 nM
5,N=C(N)c1cccc(CC(NS(=O)(=O)c2cccc(C3CCC(N)=NC3)c2)C(=O)N2CCC(CCN)CC2)c1 (stereo not drawn) [Inhibitor 15],0.069 nM
6,CCOc1ccc(-c2cccc(S(=O)(=O)N[C@@H](Cc3cccc(C(=N)N)c3)C(=O)N3CCC(CCCC(=O)NC)CC3)c2)cc1 [Inhibitor 18],8.1 nM
7,CNC(=O)CCCC1CCN(C(=O)[C@H](Cc2cccc(C(=N)N)c2)NS(=O)(=O)c2cccc(-c3ccc(N)nc3)c2)CC1 [Inhibitor 46],11 nM
8,N=C(N)c1cccc(C[C@H](NS(=O)(=O)c2cccc(NC(=O)CCN)c2)C(=O)N2CCN(C(=O)OCc3ccccc3)CC2)c1 [Inhibitor 26],6.1 nM
9,N=C(N)c1cccc(C[C@H](NS(=O)(=O)c2cccc(NC(=O)C3CNC3)c2)C(=O)N2CCC(CCN)CC2)c1 [Inhibitor 40],1.7 nM
10,CNC(=O)CCCC1CCN(C(=O)[C@H](Cc2cccc(C(=N)N)c2)NS(=O)(=O)c2cccc(N3CCCCC3=O)c2)CC1 [Inhibitor 30],31 nM
11,CCc1ccc(-c2cccc(S(=O)(=O)NC(Cc3cccc(C(=N)N)c3)C(=O)N3CCC(CCN)CC3)c2)cc1 (stereo not drawn) [Inhibitor 5],2.5 nM
12,N=C(N)c1cccc(CC(NS(=O)(=O)c2cccc(-c3ccc4[nH]ccc4c3)c2)C(=O)N2CCC(CCN)CC2)c1 (stereo not drawn) [Inhibitor 13],13 nM
13,CCOc1ccc(-c2cccc(S(=O)(=O)NC(Cc3cccc(C(=N)N)c3)C(=O)N3CCC(CCN)CC3)c2)cc1 (stereo not drawn) [Inhibitor 4],5.4 nM
14,N=C(N)c1cccc(C[C@H](NS(=O)(=O)c2cccc(NC(=O)CCO)c2)C(=O)N2CCC(CCN)CC2)c1 [Inhibitor 37],117 nM
15,COc1ccc(-c2cccc(S(=O)(=O)NC(Cc3cccc(CN)c3)C(=O)N3CCC(CCN)CC3)c2)cc1 (stereo not drawn) [Inhibitor 35],145 nM
16,N=C(N)c1cccc(C[C@H](NS(=O)(=O)c2cccc(NC(=O)CCN)c2)C(=O)N2CCC(CCCC(N)=O)CC2)c1 [Inhibitor 21],11.8 nM
17,CNC(=O)CCCC1CCN(C(=O)[C@H](Cc2cccc(C(=N)N)c2)NS(=O)(=O)c2cccc(NC(=O)C3CNC3)c2)CC1 [Inhibitor 38],16 nM
18,CC(C)Oc1ccc(-c2cccc(S(=O)(=O)NC(Cc3cccc(C(=N)N)c3)C(=O)N3CCC(CCN)CC3)c2)cc1 (stereo not drawn) [Inhibitor 6],12 nM
19,"N=C(N)c1cccc(C[C@H](NS(=O)(=O)c2cccc(CCCCN)c2)C(=O)N2CCC(CCN)CC2)c1 [Inhibitor 16, 3-(1-aminobutyl)-phenyl sulfonyl-Phe(3-Amidino)-4-(2-aminoethyl)piperidide]",0.74 nM
20,N=C(N)c1cccc(C[C@H](NS(=O)(=O)c2cccc(NC(=O)CCN)c2)C(=O)N2CCCCC2)c1 [Inhibitor 28],32 nM
21,CNC(=O)CCCC1CCN(C(=O)[C@H](Cc2cccc(C(=N)N)c2)NS(=O)(=O)c2cccc(-c3ccc(C(C)(C)C)cc3)c2)CC1 [Inhibitor 41],87 nM
